According to patent US12715865B2, “Modulators of the integrated stress response pathway” (EVOTEC INTERNATIONAL GMBH, priority 2020, dated 2026):
pIC50: −log10 of the molar value. Like-named read-outs stand apart in the source and are kept apart here.

Tested on: Tunicamycin induced ISR (ATF4) in wild-type HEK293 cells
Test: HEK-ATF4 High Content Imaging assay (ATF4 signal ratio between nucleus and cytoplasm)
Format: cell-based
Details: prevention of Tunicamycin induced ISR, 6 hrs incubation, read-out: Activity (IC50, HEK-ATF4 readout)
Method: II Biological Assay HEK-ATF4 High Content Imaging Assay
Example compounds were tested in the HEK-ATF4 High Content Imaging assay to assess their pharmacological potency to prevent Tunicamycin induced ISR. Wild-type HEK293 cells were plated in 384-well imaging assay plates at a density of 12,000 cells per well in growth medium (containing DMEM/F12, 10% FBS, 2 mM L-Glutamine, 100 U/mL Penicillin-100 μg/mL Streptomycin) and incubated at 37° C., 5% CO2. 24-hrs later, the medium was changed to 50 μl assay medium per well (DMEM/F12, 0.3% FBS, 2 mM L-Glutamine, 100 U/mL Penicillin-100 μg/mL Streptomycin). Example compounds were serially diluted in dimethyl sulfoxide (DMSO), spotted into intermediate plates and prediluted with assay medium containing 3.3 μM Tunicamycin to give an 11-fold excess of final assay concentration. In addition to the example compound testing area, the plates also contained multiples of control wells for assay normalization purposes, wells containing Tunicamycin but no example compounds (High control), as well as wells containing neither example compound nor Tunicamycin (Low control). The assay was started by transferring 5 μl from the intermediate plate into the assay plates, followed by incubation for 6 hrs at 37° C., 5% CO2. Subsequently, cells were fixed (4% PFA in PBS, 20 min at room temperature) and submitted to indirect ATF4 immunofluorescence staining (primary antibody rabbit anti ATF4, clone D4B8, Cell Signaling Technologies; secondary antibody Alexa Fluor 488 goat anti-rabbit IgG (H+L), Thermofisher Scientific). Nuclei were stained using Hoechst dye (Thermofisher Scientific), and plates were imaged on an Opera Phenix High Content imaging platform equipped with 405 nm and 488 nm excitation. Finally, images were analyzed using script based algorithms. The main readout HEK-ATF4 monitored the ATF4 signal ratio between nucleus and cytoplasm. Tunicamycin induced an increase in the overall ATF4 ratio signal, which was prevented by ISR modulating example compounds. In addition, HEK-CellCount readout was derived from counting the number of stained nuclei corresponding to healthy cells. This readout served as an internal toxicity control.

Compound	pIC50	pIC50 (Homo sapiens, HEK293, 6 h)
O=C(COc1ccc(Cl)c(F)c1)N[C@@H]1CCN(c2nnc(-c3ccc(Cl)cc3)o2)C[C@H]1O (stereo in doubt) [Example 3, 2-(4-chloro-3-fluorophenoxy)-N-[(3R*,4R*)-1-[5-(4-chlorophenyl)-1,3,4-oxadiazol-2-yl]-3-hydroxypiperidin-4-yl]acetamide]	6.30 to 9.00	–
O=C(COc1ccc(Cl)c(F)c1)N[C@@H]1CCN(c2nnc(-c3ccc(Cl)cc3)o2)C[C@H]1O (stereo in doubt) [Example 11, 2-(4-Chloro-3-fluorophenoxy)-N-[(3R,4R)-1-[5-(4-chlorophenyl)-1,3,4-oxadiazol-2-yl]-3-hydroxypiperidin-4-yl]acetamide]	5.70 to 6.30	–
O=C(COc1ccc(Cl)c(F)c1)N[C@H]1CCN(c2nnc(-c3ccc(Cl)cc3)o2)C[C@@H]1O (stereo in doubt) [Example 12, 2-(4-Chloro-3-fluorophenoxy)-N-[(3S,4S)-1-[5-(4-chlorophenyl)-1,3,4-oxadiazol-2-yl]-3-hydroxypiperidin-4-yl]acetamide]	–	6.30 to 9.00
O=C(COc1ccc(Cl)c(F)c1)NC1CCN(c2nnc(-c3ccc(Cl)cn3)o2)CC1 [Example 1, 2-(4-chloro-3-fluorophenoxy)-N-{1-[5-(5-chloropyridin-2-yl)-1,3,4-oxadiazol-2-yl]piperidin-4-yl}acetamide]	–	6.30 to 9.00
O=C(COc1cnc(Cl)c(F)c1)NC1CCN(c2nnc(-c3ccc(Cl)cc3)o2)CC1 [Example 2, 2-[(6-chloro-5-fluoropyridin-3-yl)oxy]-N-{1-[5-(4-chlorophenyl)-1,3,4-oxadiazol-2-yl]piperidin-4-yl}acetamide]	–	6.30 to 9.00
O=C(COc1ccc(Cl)c(F)c1)NC1CCN(c2nnc(-c3ccc(Cl)cc3)o2)CC1 [Example 4, 2-(4-chloro-3-fluoro-phenoxy)-N-[1-[5-(4-chlorophenyl)-1,3,4-oxadiazol-2-yl]-4-piperidyl]acetamide]	–	6.30 to 9.00
O=C(COc1ccc(Cl)c(F)c1)NC1CCN(c2nnc(CCCC(F)(F)F)o2)CC1 [Example 5, 2-(4-Chloro-3-fluorophenoxy)-N-{1-[5-(4,4,4-trifluorobutyl)-1,3,4-oxadiazol-2-yl]piperidin-4-yl}acetamide]	–	5.70 to 6.30
O=C(COc1ccc(Cl)c(F)c1)NC1CCCN(c2nnc(-c3ccc(Cl)cc3)o2)CC1 (centres unmarked) [Example 6, 2-(4-chloro-3-fluorophenoxy)-N-{1-[5-(4-chlorophenyl)-1,3,4-oxadiazol-2-yl]azepan-4-yl}acetamide]	–	5.70 to 6.30
O=C(COc1ccc(Cl)c(F)c1)N[C@H]1[C@@H]2CN(c3nnc(-c4ccc(Cl)cc4)o3)C[C@@H]21 [Example 7, 2-(4-Chloro-3-fluorophenoxy)-N-[(1R,5S,6R)-3-[5-(4-chlorophenyl)-1,3,4-oxadiazol-2-yl]-3-azabicyclo[3.1.0]hexan-6-yl]acetamide]	–	5.70 to 6.30
O=C(COc1ccc(Cl)c(F)c1)NN1CCN(c2nnc(-c3ccc(Cl)cc3)o2)CC1 [Example 8, 2-(4-Chloro-3-fluorophenoxy)-N-{4-[5-(4-chlorophenyl)-1,3,4-oxadiazol-2-yl]piperazin-1-yl}acetamide]	–	6.30 to 9.00
O=C(COc1ccc(Cl)c(F)c1)NC1CCN(c2nnc(OCCOC(F)(F)F)o2)CC1 [Example 9, 2-(4-chloro-3-fluorophenoxy)-N-(1-{5-[2-(trifluoromethoxy)ethoxy]-1,3,4-oxadiazol-2-yl}piperidin-4-yl)acetamide]	–	6.30 to 9.00
O=C(COc1ccc(Cl)c(F)c1)NC1CCN(c2nnc(N3CC(OC(F)(F)F)C3)o2)CC1 [Example 10, 2-(4-chloro-3-fluorophenoxy)-N-(1-{5-[3-(trifluoromethoxy)azetidin-1-yl]-1,3,4-oxadiazol-2-yl}piperidin-4-yl)acetamide]	–	6.30 to 9.00
O=C(COc1ccc(Cl)c(F)c1)N[C@H]1CCCN(c2nnc(-c3ccc(Cl)cc3)o2)CC1 [Example 13, 2-(4-Chloro-3-fluorophenoxy)-N-[(4S)-1-[5-(4-chlorophenyl)-1,3,4-oxadiazol-2-yl]azepan-4-yl]acetamide]	–	5.70 to 6.30
O=C(COc1ccc(Cl)c(F)c1)N[C@@H]1CCCN(c2nnc(-c3ccc(Cl)cc3)o2)CC1 [Example 14, 2-(4-chloro-3-fluorophenoxy)-N-[(4R)-1-[5-(4-chlorophenyl)-1,3,4-oxadiazol-2-yl]azepan-4-yl]acetamide]	–	4.82 to 5.70
